The source of these data is ChEMBL document CHEMBL3758173, “Identification of β-Amino alcohol grafted 1,4,5 trisubstituted 1,2,3-triazoles as potent antimalarial agents” (Eur J Med Chem, 2016).

Calls of active or inactive are those of the source. The rule behind the calls is not given here.

The test system of series [1] is Plasmodium falciparum. The series is described as follows: Antiplasmodial activity against chloroquine sensitive Plasmodium falciparum 3D7 infected in human erythrocytes incubated for 72 hrs by SYBR Green1-based fluorescence analysis. The format is functional, organism-based. The note with it: 3D7, 72 h.
Series [2] is described as follows: Selectivity index, ratio of CC50 for monkey kidney VERO cells to IC50 for chloroquine resistant Plasmodium falciparum K1 infected in human erythrocytes. Type of series: functional.
Series [3] concerns MCF7. The series is described as follows: Induction of p53 protein expression in human MCF7 cells at antiplasmodial IC50 after 36 hrs by luciferase reporter assay relative to control. The format is functional. In general terms: A reporter such as luciferase makes a cellular process visible.
A short description of series [4]: Cytotoxicity against monkey kidney Vero cells by resazurin assay. The format is cell-based. The settings on record: chlorocebus sabaeus. On the technique in general: Alamar Blue is a resazurin reagent that responds to reducing activity.
Series [5] has as its system MCF7. The series is described as follows: Upregulation of p53 level in human MCF7 cells at antiplasmodial IC50 after 48 hrs by immnublotting method. Type of series: functional, cell-based. The settings on record: TDE = time-dependent effect.
Series [6] deals with Plasmodium falciparum. The series is described as follows: Antiplasmodial activity against chloroquine resistant Plasmodium falciparum K1 infected in human erythrocytes incubated for 72 hrs by SYBR Green1-based fluorescence analysis. The format is functional, organism-based. The note with it: K1, 72 h.
The nature of series [7]: Selectivity index, ratio of CC50 for monkey kidney VERO cells to IC50 for chloroquine sensitive Plasmodium falciparum 3D7 infected in human erythrocytes. Type of series: functional.
The nature of series [8]: Resistance index, ratio of IC50 for chloroquine resistant Plasmodium falciparum K1 infected in human erythrocytes to IC50 for chloroquine sensitive Plasmodium falciparum 3D7 infected in human erythrocytes. The format is functional.
In a further series the test system is Mus musculus. The experiment in a line: Toxicity in multidrug-resistant Plasmodium yoelii nigeriensis infected Swiss mouse assessed as mouse survival at 100 mg/kg/day, po for 4 days. Type of series: organism-based. The note with it: in vivo, 96 h.
Series [9] relates to Plasmodium yoelii nigeriensis. The experiment in a line: Antiplasmodial activity against multidrug-resistant Plasmodium yoelii nigeriensis infected in Swiss mouse assessed as suppression of parasitaemia at 100 mg/kg, po for 4 days by Geimsa-staining based analysis. Type of series: functional. The note with it: 96 h.
Series [10] can be described thus: Mean residence time(last) in Sprague-Dawley rat at 100 mg/kg, po after 0 to 48 hrs by LC-MS/MS analysis. Type of series: ADME, organism-based. The note with it: in vivo.
The subject of series [11] is Rattus norvegicus. The experiment in a line: Apparent oral volume of distribution in Sprague-Dawley rat at 100 mg/kg, po after 0 to 48 hrs by LC-MS/MS analysis. The format is ADME, organism-based. The note with it: in vivo.
A short description of series [12]: Apparent oral clearance in Sprague-Dawley rat at 100 mg/kg, po after 0 to 48 hrs by LC-MS/MS analysis. The format is ADME, organism-based. The note with it: in vivo.
The nature of series [13]: Tmax in Sprague-Dawley rat at 100 mg/kg, po after 0 to 48 hrs by LC-MS/MS analysis. The format is ADME, organism-based. The note with it: in vivo.
For series [14], the system named is MCF7. The series is described as follows: Induction of p53 protein expression in human MCF7 cells at antiplasmodial IC50 after 36 hrs by luciferase reporter assay relative to control relative to doxorubicin. The format is functional.
Series [15] deals with Rattus norvegicus. The series is described as follows: AUC(last) in Sprague-Dawley rat at 100 mg/kg, po after 0 to 48 hrs by LC-MS/MS analysis. The format is ADME, organism-based. Also noted: dose 100 mg/kg, time 0 - last, route oral. The settings on record: in vivo.
The nature of series [16]: Cmax in Sprague-Dawley rat at 100 mg/kg, po after 0 to 48 hrs by LC-MS/MS analysis. Also noted: dose 100 mg/kg, route oral. The format is ADME, organism-based. The settings on record: in vivo.

Consider `OC(CNc1cccc2ccccc12)(c1ccc(Cl)cc1)c1nnn(Cc2ccccc2)c1-c1ccc(Cl)cc1` (configuration not stated), for which the values for the IC50 in the series with Plasmodium falciparum [1] and in the series with Plasmodium falciparum [6] were 1330 nM and 1230 nM, respectively. In addition, the “Ratio CC50/IC50” value in [2] was 235.39; in series [7], 217.59. In the series with MCF7 [3], the outcome was Active. In addition, in [4], it took 290000 nM to reach half-maximal cytotoxicity (CC50). Besides, the Activity entry in the series on MCF7 [5] is “tde”. Further, the “Ratio IC50” value in series [8] turned out to be 0.92.
With `OC(CNc1ccc(Br)cc1)(c1ccc(Cl)cc1)c1nnn(Cc2ccccc2)c1-c1ccc(F)cc1` (configuration not stated), the IC50 (usually the concentration that inhibits the measured activity by half) in the series on Plasmodium falciparum [1] is 1100 nM; in the series on Plasmodium falciparum [6] it was 2010 nM. Moreover, the “Ratio CC50/IC50” value is on record as over 248.75 in [2] and over 454.54 in series [7]. Moreover, the Activity result in the series on Mus musculus is recorded as “Non-toxic”. Further, the result in the series with MCF7 [3] was Active. Besides, the inhibition in vivo (usually the relative decrease from the control value, in per cent) at 100 mg/kg in [9] is 64.6%. Moreover, the CC50 (in general, the concentration that lowers cell viability or growth by half) in series [4] was over 500000 nM. In addition, the “Ratio IC50” value in series [8] was 1.82.
`OC(CNc1ccc(Br)cc1)(c1ccc(Br)cc1)c1nnn(Cc2ccccc2)c1-c1ccccc1` (configuration not stated): the IC50 was determined as 1650 nM in the series with Plasmodium falciparum [1] and 500 nM in the series on Plasmodium falciparum [6]. The figures for the “Ratio CC50/IC50” value in [2] and in series [7] were over 1000 and over 303.03, respectively. For the same molecule, the figures for the Activity result in the series on Mus musculus and in the series on MCF7 [5] were “Non-toxic” and “tde”, respectively. The result in the series on MCF7 [3] was Active. In addition, in series [9], the inhibition in vivo at 100 mg/kg is 16.8%. Further, in [4], the CC50 is over 500000 nM. In addition, the “Ratio IC50” value in series [8] was found to be 0.3.
`OC(CNc1ccc(F)c(F)c1)(c1ccc(Cl)cc1)c1nnn(Cc2ccccc2)c1-c1ccc(Cl)cc1` (configuration not stated): the results for the IC50 with Plasmodium falciparum [1] and with Plasmodium falciparum [6] were 2150 nM and 500 nM, respectively. In addition, the “Ratio CC50/IC50” value is on record as over 1000 in [2] and over 232.55 in [7]. Besides, the Activity entry in the series on Mus musculus is on record as “Non-toxic”. The inhibition in vivo at 100 mg/kg in series [9] is 89.9%. In series [4], this molecule yielded a CC50 of over 500000 nM. The “Ratio IC50” value in [8] was 0.23.
As for `CC(C)c1ccc(-c2c(C(O)(CNc3ccc(Br)cc3)c3ccc(Cl)cc3)nnn2Cc2ccccc2)cc1` (configuration not stated), the results for the IC50 in the series on Plasmodium falciparum [1] and in the series on Plasmodium falciparum [6] were 300 nM and 2110 nM, respectively. The “Ratio CC50/IC50” value is on record as 73.26 in series [2] and 515.3 in [7]. Moreover, the Activity entry in the series with Mus musculus is “Non-toxic”; in the series on MCF7 [5], “tde”. In addition, the “fold change (FC)” value with MCF7 [3] was found to be 20; in the series with MCF7 [14] it was 10. For the same molecule, the MRT last – broadly, a mean duration of stay, worked out from the concentration-time curve – in [10] stood at 15 h. Besides, in series [9], the inhibition in vivo at 100 mg/kg was 86.8%. Moreover, in series [4], the midpoint of cytotoxicity, the CC50, lay at 155000 nM. Also, in the series on Rattus norvegicus [11], the Vd/F (as a rule, the volume of distribution divided by bioavailability) turned out to be 1837.17 L/kg. Also, the CL/F (as a rule, the apparent clearance, not corrected for the fraction that reaches the circulation) in [12] was 741 mL/min/kg. Further, the “Ratio IC50” value in series [8] is given as over 7.03. For the same molecule, the Tmax (as a rule, the time at which the peak concentration occurs) in [13] was 4 h. Further, the AUClast with Rattus norvegicus [15] was 1590 ng·h/mL. Besides, the highest level in series [16] (Cmax) was 212 ng/mL.
